# Results published in the supplement of paper PMC10307832.
# Experiments:
# Experiment in all cases: relative viability (nuclei count vs DMSO), 5 days (fraction); higher = more cells survive
# Salubrinal + Olaparib = compound: O=C(/C=C/c1ccccc1)NC(NC(=S)Nc1cccc2cccnc12)C(Cl)(Cl)Cl [Salubrinal] + O=C(c1cc(Cc2n[nH]c(=O)c3ccccc23)ccc1F)N1CCN(C(=O)C2CC2)CC1 [Olaparib] (partner 8 µM)
# Method in brief: (§1)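 Lung cancer cell lines were pin-tool dosed in 1536-well plates on the day after seeding, with either a lone drug or a fixed anchor-drug dose plus five library-drug doses (not always all listed) in √10 steps. Nuclei were counted on 4× images after 5 days. Relative viability is the ratio of treated-well to vehicle-well nuclei counts, with each value a median of duplicate plates.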
# [1] = compound: Cc1ccc2nc(NCCN)c3ncc(C)n3c2c1 + CCNC(=O)c1noc(-c2cc(C(C)C)c(O)cc2O)c1-c1ccc(CN2CCOCC2)cc1 [Luminespib] (partner 0.01 µM)
# Method in brief: as §1
# Salubrinal + Pictilisib = compound: O=C(/C=C/c1ccccc1)NC(NC(=S)Nc1cccc2cccnc12)C(Cl)(Cl)Cl [Salubrinal] + CS(=O)(=O)N1CCN(Cc2cc3nc(-c4cccc5[nH]ncc45)nc(N4CCOCC4)c3s2)CC1 [Pictilisib] (partner 1 µM)
# Method in brief: as §1
# [2] = compound: Cc1ccc2nc(NCCN)c3ncc(C)n3c2c1 + CC(=O)Nc1cccc(-n2c(=O)n(C3CC3)c(=O)c3c(Nc4ccc(I)cc4F)n(C)c(=O)c(C)c32)c1 [Trametinib] (partner 0.02 µM)
# Method in brief: as §1
Cell Line,relative viability (Salubrinal + Olaparib; first compound 0.08 µM),relative viability (Salubrinal + Olaparib; first compound 0.253 µM),relative viability (Salubrinal + Olaparib; first compound 0.8 µM),relative viability (Salubrinal + Olaparib; first compound 2.53 µM),relative viability (Salubrinal + Olaparib; first compound 8 µM),relative viability ([1]; first compound 0.04 µM),relative viability ([1]; first compound 0.1265 µM),relative viability ([1]; first compound 0.4 µM),relative viability ([1]; first compound 1.265 µM),relative viability ([1]; first compound 4 µM),relative viability (Salubrinal + Pictilisib; first compound 0.08 µM),relative viability (Salubrinal + Pictilisib; first compound 0.253 µM),relative viability (Salubrinal + Pictilisib; first compound 0.8 µM),relative viability (Salubrinal + Pictilisib; first compound 2.53 µM),relative viability (Salubrinal + Pictilisib; first compound 8 µM),relative viability ([2]; first compound 0.04 µM),relative viability ([2]; first compound 0.1265 µM),relative viability ([2]; first compound 0.4 µM),relative viability ([2]; first compound 1.265 µM),relative viability ([2]; first compound 4 µM)
NCI-H322M,0.806,0.783,0.766,0.675,0.728,0.908,0.845,0.961,0.858,0.734,0.476,0.541,0.578,0.539,0.498,0.522,0.538,0.495,0.502,0.535
NCI-H358,0.817,0.434,0.724,0.558,0.523,0.309,0.373,0.236,0.326,0.313,0.328,0.455,0.356,0.309,0.373,0.133,0.153,0.13,0.137,0.129
NCI-H441,0.732,0.448,0.675,0.542,0.514,0.285,0.482,0.312,0.465,0.322,0.479,0.432,0.705,0.534,0.294,0.487,0.47,0.342,0.346,0.512
NCI-H460,0.541,0.606,0.514,0.355,0.368,0.0414,0.0267,0.0351,0.0331,0.0182,0.261,0.296,0.398,0.482,0.518,0.165,0.146,0.171,0.197,0.0969
NCI-H520,0.334,0.361,0.325,0.322,0.338,0.204,0.216,0.231,0.191,0.235,0.376,0.212,0.338,0.302,0.316,0.75,0.658,0.753,0.677,0.621
NCI-H596,0.768,0.525,0.597,0.668,0.581,1.12,0.959,0.967,0.215,1.05,0.421,0.347,0.437,0.456,0.401,0.834,0.732,0.806,0.74,0.763
NCI-H647,0.72,0.372,0.685,0.63,0.453,0.163,0.187,0.155,0.136,0.188,0.298,0.421,0.421,0.501,0.427,0.542,0.378,0.437,0.419,0.341
NCI-H650,0.438,0.45,0.474,0.385,0.381,0.891,0.688,0.583,0.602,0.698,0.678,1.1,0.968,0.916,0.842,1.03,0.911,1.07,0.955,0.864
NCI-H661,0.753,0.538,0.76,0.73,0.758,0.932,0.94,0.929,0.98,0.8,0.434,0.196,0.443,0.384,0.569,0.579,0.57,0.567,0.574,0.544
NCI-H727,0.804,0.581,0.815,0.699,0.662,0.36,–,0.358,0.385,0.4,0.318,0.312,0.433,0.197,0.359,0.453,–,0.398,0.383,0.435
NCI-H838,0.896,0.542,0.832,0.789,0.716,0.362,0.344,0.324,0.3,0.258,0.361,0.408,0.496,0.435,0.282,0.561,0.507,0.45,0.507,0.612
NCI-H1355,0.775,0.903,0.75,0.766,0.643,0.844,0.73,0.722,0.691,0.732,0.366,0.433,0.45,0.426,0.425,0.44,0.448,0.392,0.39,0.387
NCI-H1395,0.445,0.448,0.411,0.466,0.437,0.828,0.701,0.664,0.534,0.761,0.621,0.651,0.609,0.603,0.504,0.977,0.983,0.989,0.828,0.878
NCI-H1437,0.673,0.547,0.665,0.614,0.543,1.13,1.09,1.14,1.08,1.06,0.449,0.484,0.415,0.417,0.328,0.578,0.463,0.445,0.415,0.381
NCI-H1650,0.941,0.705,0.811,0.751,0.804,0.242,0.213,0.195,0.214,0.212,0.536,0.491,0.635,0.581,0.536,0.57,0.499,0.739,0.494,0.427
NCI-H1651,0.189,0.181,0.208,0.152,0.183,0.801,0.805,0.997,0.836,0.839,0.822,0.486,0.667,–,0.423,0.842,0.666,0.844,0.865,0.829

Cell Line,relative viability (Salubrinal + Olaparib; first compound 0.08 µM),relative viability (Salubrinal + Olaparib; first compound 0.253 µM),relative viability (Salubrinal + Olaparib; first compound 0.8 µM),relative viability (Salubrinal + Olaparib; first compound 2.53 µM),relative viability (Salubrinal + Olaparib; first compound 8 µM),relative viability ([1]; first compound 0.04 µM),relative viability ([1]; first compound 0.1265 µM),relative viability ([1]; first compound 0.4 µM),relative viability ([1]; first compound 1.265 µM),relative viability ([1]; first compound 4 µM),relative viability (Salubrinal + Pictilisib; first compound 0.08 µM),relative viability (Salubrinal + Pictilisib; first compound 0.253 µM),relative viability (Salubrinal + Pictilisib; first compound 0.8 µM),relative viability (Salubrinal + Pictilisib; first compound 2.53 µM),relative viability (Salubrinal + Pictilisib; first compound 8 µM),relative viability ([2]; first compound 0.04 µM),relative viability ([2]; first compound 0.1265 µM),relative viability ([2]; first compound 0.4 µM),relative viability ([2]; first compound 1.265 µM),relative viability ([2]; first compound 4 µM)
NCI-H1666,0.713,0.605,0.713,0.711,0.732,0.963,0.994,1.07,0.915,1.01,0.398,0.491,0.485,0.404,0.45,0.907,0.796,0.773,0.863,0.8
NCI-H1734,0.699,0.6,0.651,0.583,0.637,0.217,0.251,0.197,0.184,0.176,0.452,0.508,0.503,0.517,0.438,0.719,0.632,0.755,0.638,0.707
NCI-H1755,1.01,0.937,0.922,0.857,0.893,0.42,0.359,0.339,0.288,0.48,0.564,0.417,0.535,0.431,0.401,0.757,0.809,0.769,0.8,0.776
NCI-H1792,0.531,–,0.583,0.287,0.408,0.49,0.434,–,0.396,0.432,0.324,–,0.246,0.287,0.243,0.645,0.397,–,0.405,0.488
NCI-H1793,1.09,0.948,0.876,0.979,0.751,0.577,0.168,0.182,0.181,0.215,0.309,0.319,0.306,0.316,0.285,0.371,0.363,0.525,0.363,0.4
NCI-H1915,0.256,–,0.257,0.28,0.273,0.721,0.783,–,0.598,0.636,0.855,0.942,0.999,0.946,0.953,0.304,0.297,0.28,0.296,0.294
NCI-H1944,0.435,0.478,0.461,0.431,0.417,0.735,0.735,0.663,0.817,0.844,0.349,0.328,0.362,0.348,0.307,0.432,0.476,0.401,0.381,0.427
NCI-H1975,0.926,0.59,0.777,0.769,0.613,0.224,0.243,0.326,0.116,0.153,0.259,0.269,0.338,0.269,0.278,0.329,0.376,0.369,0.329,0.321
NCI-H1993,0.867,0.932,0.561,–,1.47,1.01,0.944,0.902,0.887,0.859,0.817,0.827,0.877,0.773,0.861,0.421,0.632,0.64,0.34,0.46
NCI-H2009,0.758,0.581,0.547,0.685,0.656,1.03,1,1.05,1.01,0.792,0.976,0.857,1.02,0.756,0.749,0.309,0.251,0.286,0.273,0.28
NCI-H2023,0.472,0.428,0.435,0.373,0.524,0.782,0.68,0.764,0.782,0.264,0.22,0.278,0.289,0.277,0.208,0.595,0.561,0.661,0.574,0.32
NCI-H2085,0.804,0.742,0.765,0.76,0.745,0.492,0.463,0.446,0.442,0.393,0.464,0.475,0.512,0.542,0.489,1.03,0.63,0.502,0.491,0.499
NCI-H2087,0.476,0.493,0.784,0.508,0.584,0.214,0.2,0.152,0.267,0.162,0.917,0.892,1.02,0.853,0.963,0.18,0.208,0.194,0.16,0.204
NCI-H2126,1.01,0.754,0.941,0.88,0.951,0.998,0.867,0.917,0.89,0.832,0.423,0.479,0.515,0.483,0.481,0.547,0.563,0.522,0.607,0.552
NCI-H2170,0.65,0.632,0.668,0.641,0.636,0.637,0.699,0.516,0.855,0.64,0.29,0.315,0.335,0.294,0.271,0.892,0.915,0.871,0.83,0.921
NCI-H2228,0.691,–,0.969,0.555,0.385,0.147,0.149,0.181,0.145,0.149,0.472,0.356,0.31,0.543,0.321,0.549,0.501,0.522,0.519,0.424
